Experimental data published in patent US20140221340A1 (KYOWA HAKKO KIRIN CO., LTD., priority 2011, published 2014).

Target: T1, human CCR10 (Homo sapiens, UniProt P46092)
T1 construct: expressed in transfected cells; host or cells: KJMGER8 cell (cell line derived from Namalwa cell); expression induced with 10 nmol/L β-estradiol
T1 sequence (P46092 1-362): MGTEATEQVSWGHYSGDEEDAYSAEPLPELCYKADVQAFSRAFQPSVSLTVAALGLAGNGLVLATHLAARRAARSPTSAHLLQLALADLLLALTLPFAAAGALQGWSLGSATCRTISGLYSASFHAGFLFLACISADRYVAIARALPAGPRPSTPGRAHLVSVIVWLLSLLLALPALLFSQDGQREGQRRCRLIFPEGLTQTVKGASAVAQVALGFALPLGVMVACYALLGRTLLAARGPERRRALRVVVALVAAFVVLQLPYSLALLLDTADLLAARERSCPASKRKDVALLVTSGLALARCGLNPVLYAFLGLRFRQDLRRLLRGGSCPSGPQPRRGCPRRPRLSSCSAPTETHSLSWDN
Test: Calcium assay of human CCR10 (inhibition of CTACK-induced increase in intracellular calcium ion concentration in hCCR10G16 cells)
Type: cell-based
Details: test compound 100 nmol/L; human recombinant CTACK; hCCR10G16 cells (KJMGER8/Namalwa-derived, Gα16 co-expressed); FLIPR or FDSS
Experimental: A CCR10-inducible expression plasmid was produced according to a known method (“Analytical Biochemistry”, 2006, vol. 400, page 163). A DNA encoding human CCR10 was obtained by PCR. Using human chromosomal DNA (100 ng; manufactured by Clontech Laboratories, Inc.) as a template, a synthetic DNA having the sequences shown by SEQ ID NOs: 1 and 2 as a human CCR10 cDNA specific primer, and Pyrobest DNA Polymerase (manufactured by TAKARA SHUZO CO. LTD.) as an enzyme, a DNA encoding human CCR10 was obtained by PCR. As a buffer solution for PCR, the buffer solution attached to the enzyme was diluted 10-fold with deionized water and used. Using Thermal Cycler DNA Engine (manufactured by MJ Research), PCR was performed by 35 cycles of reactions composed of an incubation at 90° C. for 2 min, at 94° C. for 30 seconds, at an anneal temperature of 58° C. for 30 seconds, and at 72° C. for 1 min.
The amplified PCR fragment was cleaved with HindIII and NotI, then a human CCR10 DNA fragment was recovered by an agarose gel electrophoresis method. The fragment was incorporated in between the corresponding restriction enzyme sites (HindIII-NotI) of an inducible expression vector, whereby a human CCR10-inducible expression plasmid were prepared.
Using a primer specific to the sequence of the plasmid (synthetic DNA having the sequences shown by SEQ ID NOs: 3 and 4), the sequence of human CCR10 DNA region was determined. For the determination of the base sequence, DNA sequencer 377 (manufactured by PerkinElmer) and a reaction kit (ABI Prism (registered trade mark) BigDye (registered trade mark) Terminator Cycle Sequencing Ready Reaction kit: manufactured by Applied Biosystems) were used. The sequence of human CCR10 DNA matched with the sequence (NM_016602) registered in GenBank.
Cells for the detection of the signal from human CCR10 by a calcium assay were prepared. Human CCR10-inducible expressing cells whose host cell is KJMGER8 cell (cell line derived from Namalwa cell) were prepared according to a known method (“Analy Biochem”, 2006, vol. 400, page 163). Human CCR10-inducible expression plasmid produced above and Gα16 expression plasmid were co-transfected into KJMGER8 cell by an electroporation method (“Cytotechnology”, 1990, vol. 3, page 133), whereby a signal from human CCR10 could be detected by a calcium assay (hereinafter to be referred to as hCCR10G16 cell). Gα16 expression plasmid was produced by incorporating human Gα16 DNA into expression vector pAMoh (WO03/087366). Induced expression of human CCR10 was performed by cultivating hCCR10G16 cells in the presence of 10 nmol/L β-estradiol (manufactured by Sigma Ltd.) for 24 hr.
Cells expressing human CCR10 induced by the above-mentioned method were suspended in RPMI1640 medium and adjusted to cell density of 1.25×10^6 cells/mL. This mixture was dispensed to a 384 well clear bottom plate (manufactured by Corning Incorporated) at 20 μL/well, and these were incubated at 37° C. for several dozen minutes. A loading buffer prepared according to the protocol attached to FLIPR Calcium 3 assay kit (manufactured by Molecular Device) was dispensed to this plate at 20 μL/well, and the plate was incubated at 37° C. for 60 min. A 33 μmol/L DMSO solution of the test compound was diluted 37-fold with RPMI1640 medium and the resulting solution was added at 5 μL/well, and the mixture was incubated at 37° C. for 30 min. 300 nmol/L human recombinant CTACK (manufactured by R and D Systems) diluted with RPMI1640 medium containing 1 w/v % bovine serum albumin was added at 5 μL/well. Change of the intracellular calcium ion concentration for about 5 min after the addition was measured by FLIPR (manufactured by Molecular Device) or FDSS (manufactured by Hamamatsu Photonics K.K.). The difference between the maximum fluorescence intensity and the minimum fluorescence intensity for 5 min was calculated, and taken as the measurement value (maximum fluorescence intensity−minimum fluorescence intensity). […]

Row | SMILES | Inhibitory rate (%) for an increase in calcium ion concentration [%]
1 | Cc1ccc(F)c(Nc2c(C(=O)N3CCC4(CC3)OCc3ccccc34)cnc3c(S(=O)(=O)NC(=O)C4CC4)cnn23)c1 [a-52] | >100
2 | Cc1cc(Cl)ccc1Nc1c(C(=O)N2CCC3(CC2)OCc2ccccc23)cnc2c(S(=O)(=O)NC(=O)C3CC3)cnn12 [a-46] | >100

Same assay, conditions: test compound 100 nmol/L; human recombinant CTACK; hCCR10G16 cells (KJMGER8/Namalwa-derived, Gα16 co-expressed); FLIPR or FDSS; read-out: Inhibitory rate (%) for an increase in calcium ion concentration

Row | SMILES | inhibition at 0.1 µM [%]
3 | Cc1cc(F)ccc1Nc1c(C(=O)N2CCC(c3ccccc3)CC2)cnc2c(S(=O)(=O)NC(=O)CO)cnn12 [a-65, N-[7-(4-Fluoro-2-methylphenylamino)-6-(4-phenylpiperidine-1-carbonyl)pyrazolo[1,5-a]pyrimidin-3-ylsulfonyl]-2-hydroxyacetamide] | > 100
4 | CCNC(=O)NS(=O)(=O)c1cnn2c(Nc3cc(C)ccc3Cl)c(C(=O)N3CC4(C3)CN(c3ccc(F)cc3)C4)cnc12 [a-61, 7-(2-Chloro-5-methylphenylamino)-N-(ethylcarbamoyl)-6-[6-(4-fluorophenyl)-2,6-diazaspiro[3,3]heptane-2-carbonyl]pyrazolo[1,5-a]pyrimidine-3-sulfonamide] | 24.3
5 | CCNC(=O)NS(=O)(=O)c1cnn2c(Nc3cc(C)c(F)cc3Cl)c(C(=O)N3CCC(c4ccc(F)cc4)CC3)cnc12 [a-42, 7-(2-Chloro-4-fluoro-5-methylphenylamino)-N-(ethylcarbamoyl)-6-[4-(4-fluorophenyl)piperidine-1-carbonyl]pyrazolo[1,5-a]pyrimidine-3-sulfonamide] | > 100
6 | Cc1cc(F)ccc1Nc1c(C(=O)N2CCC(c3ccccc3)CC2)cnc2c(S(=O)(=O)NC(=O)N3CCOCC3)cnn12 [a-68, N-[7-(4-Fluoro-2-methylphenylamino)-6-(4-phenylpiperidine-1-carbonyl)pyrazolo[1,5-a]pyrimidin-3-ylsulfonyl]morpholine-4-carboxamide] | 85.9
7 | CCC(=O)NS(=O)(=O)c1cnn2c(Nc3cc(C)ccc3Cl)c(C(=O)N3CCC(c4ccc(F)cc4)CC3)cnc12 [a-13, N-{7-(2-Chloro-5-methylphenylamino)-6-[4-(4-fluorophenyl)piperidine-1-carbonyl]pyrazolo[1,5-a]pyrimidin-3-ylsulfonyl}ethanecarboxamide] | > 100
8 | CCNC(=O)NS(=O)(=O)c1cnn2c(Nc3ccccc3Cl)c(C(=O)N3CCC(c4ccccc4)CC3)cnc12 [a-7, 7-(2-Chlorophenylamino)-N-(ethylcarbamoyl)-6-(4-phenylpiperidine-1-carbonyl)pyrazolo[1,5-a]pyrimidine-3-sulfonamide] | 92.4
9 | CC(=O)NS(=O)(=O)c1cnn2c(Nc3cc(C)ccc3Cl)c(C(=O)N3CCC4(CC3)OCc3ccccc34)cnc12 [a-55, N-{7-(2-Chloro-5-methylphenylamino)-6-[3H-spiro(isobenzofuran-1,4′-piperidine)-1′-carbonyl]pyrazolo[1,5-a]pyrimidin-3-ylsulfonyl}acetamide] | > 100
10 | CCNC(=O)NS(=O)(=O)c1cnn2c(Nc3cc(F)ccc3Cl)c(C(=O)N3CCC(c4ccc(F)cc4)CC3)cnc12 [a-30, 7-(2-Chloro-5-fluorophenylamino)-N-(ethylcarbamoyl)-6-[4-(4-fluorophenyl)piperidine-1-carbonyl]pyrazolo[1,5-a]pyrimidine-3-sulfonamide] | > 100
11 | CCC(=O)NS(=O)(=O)c1cnn2c(Nc3cc(C(F)(F)F)ccc3Cl)c(C(=O)N3CCC(c4ccc(F)cc4)CC3)cnc12 [a-29, N-{7-(2-Chloro-5-trifluoromethylphenylamino)-6-[4-(4-fluorophenyl)piperidine-1-carbonyl]pyrazolo[1,5-a]pyrimidin-3-ylsulfonyl}propionamide] | > 100
12 | Cc1ccc(Cl)c(Nc2c(C(=O)N3CCC4(CC3)OCc3ccccc34)cnc3c(S(=O)(=O)NC(=O)NCC(F)(F)F)cnn23)c1 [a-82, 7-(2-Chloro-5-methylphenylamino)-6-[3H-spiro(isobenzofuran-1,4′-piperidine)-1′-carbonyl]-N-(2,2,2-trifluoroethylcarbamoyl)pyrazolo[1,5-a]pyrimidine-3-sulfonamide] | 75.3
13 | CCNC(=O)NS(=O)(=O)c1cnn2c(Nc3ccccc3Cl)c(C(=O)N3CCC(c4ccc(F)cc4)CC3)cnc12 [a-10, 7-(2-Chlorophenylamino)-N-(ethylcarbamoyl)-6-[4-(4-fluorophenyl)piperidine-1-carbonyl]pyrazolo[1,5-a]pyrimidine-3-sulfonamide] | > 100

Continued, values first:

Row | inhibition at 0.1 µM [%] | SMILES
14 | 95.2 | CCNC(=O)NS(=O)(=O)c1cnn2c(Nc3cc(C)ccc3Cl)c(C(=O)N3CCC4(CC3)OCc3ccccc34)cnc12 [a-44, 7-(2-Chloro-5-methylphenylamino)-N-(ethylcarbamoyl)-6-[3H-spiro(isobenzofuran-1,4′-piperidine)-1′-carbonyl]pyrazolo[1,5-a]pyrimidine-3-sulfonamide]
15 | > 100 | CCC(=O)NS(=O)(=O)c1cnn2c(Nc3cc(C)ccc3F)c(C(=O)N3CCC(c4ccc(F)cc4)CC3)cnc12 [a-31, N-{7-(2-Fluoro-5-methylphenylamino)-6-[4-(4-fluorophenyl)piperidine-1-carbonyl]pyrazolo[1,5-a]pyrimidin-3-ylsulfonyl}propionamide]
16 | > 100 | Cc1ccc(Cl)c(Nc2c(C(=O)N3CCC(c4ccc(F)cc4)CC3)cnc3c(S(=O)(=O)NC(=O)C4CC4)cnn23)c1 [a-12, N-{7-(2-Chloro-5-methylphenylamino)-6-[4-(4-fluorophenyl)piperidine-1-carbonyl]pyrazolo[1,5-a]pyrimidin-3-ylsulfonyl}cyclopropanecarboxamide]
17 | 95.1 | CCNC(=O)NS(=O)(=O)c1cnn2c(NCc3ccccc3)c(C(=O)N3CCC(c4ccccc4)CC3)cnc12 [a-76, 7-Benzylamino-N-ethylcarbamoyl-6-(4-phenylpiperidine-1-carbonyl)pyrazolo[1,5-a]pyrimidine-3-sulfonamide]
18 | 98.9 | O=C(NS(=O)(=O)c1cnn2c(Nc3ccccc3Cl)c(C(=O)N3CCC(c4ccccc4)CC3)cnc12)C1CC1 [a-6, N-[7-(2-Chlorophenylamino)-6-(4-phenylpiperidine-1-carbonyl)pyrazolo[1,5-a]pyrimidin-3-ylsulfonyl]cyclopropanecarboxamide]
19 | 89.4 | O=C(NS(=O)(=O)c1cnn2c(NCc3ccccc3)c(C(=O)N3CCC(c4ccccc4)CC3)cnc12)C1CC1 [a-75, N-[7-Benzylamino-6-(4-phenylpiperidine-1-carbonyl)pyrazolo[1,5-a]pyrimidin-3-ylsulfonyl]cyclopropanecarboxamide]
